Experimental data from patent US20220218670A1, “METHODS OF TREATING DISEASES CHARACTERISED BY VASOCONSTRICTION” (Gesynta Pharma AB, priority 2016, published 2022).

Assays:
Format in all cases: in vivo
ADMA = test: Circulating ADMA in plasma by immunoassay after COX-2 inhibition in mice; details: wild-type mice; parecoxib 100 mg/kg in drinking water for 5 days; FIG. 1
Protocol: Experiments were performed on male and female mPGES-1^−/− and their wild-type mPGES-1^+/+ littermate mice at 6-8 weeks of age. […] All mice were housed with a 12 h light/dark cycle in a climate-controlled environment, and were fed with standard rodent chow with water ad libitum. All mice experiments were conducted in line with EU directive 2010/63/EU and according to guidelines from the Swedish Veterinary board the Guide for the Care and Use of Laboratory Animals published by the US National Institutes of Health (NIH Publication No. 85-23, revised 1996). Studies were sanctioned by the Karolinska Institute ethics committee (dnr. N86_13 and N364_11), the Shantou University Institutional Animal Research and Use Committee and/or the Imperial College London Ethical Review Panel (PPL 70/7013 and 70/8422). Where indicated, wild-type (mPGES-1^+/+) mice were treated with the selective COX-2 inhibitor, parecoxib (100 mg/kg; Pfizer, USA) added to their drinking water for 5 days prior to tissue collection as we have done before (see Ahmetaj-Shala, B. et al., Circulation, 131, 633-642 (2015)).
Plasma was separated by centrifugation for the following circulating mediators measured by immunoassay: ADMA (DLD Diagnostika, Germany), PGE2 (Cisbio Bioassays, France).

Agxt2 = test: Gene expression in renal medulla (TaqMan), gene for degradation of ADMA; details: wild-type mice, parecoxib 100 mg/kg in drinking water for 5 days, FIG. 3
Protocol: (§1) Experiments were performed on male and female mPGES-1^−/− and their wild-type mPGES-1^+/+ littermate mice at 6-8 weeks of age. […] All mice were housed with a 12 h light/dark cycle in a climate-controlled environment, and were fed with standard rodent chow with water ad libitum. All mice experiments were conducted in line with EU directive 2010/63/EU and according to guidelines from the Swedish Veterinary board the Guide for the Care and Use of Laboratory Animals published by the US National Institutes of Health (NIH Publication No. 85-23, revised 1996). […]
(§2) RNA was isolated from renal medulla homogenates using a magnetic silica-bead isolation kit (Life Technologies, UK) and converted to cDNA using reverse transcriptase (Thermo Fisher Scientific, UK) with oligo(dT) primers (Life Technologies, UK). Gene expression levels were determined using TaqMan hydrolysis probes (Life Technologies, UK) recognising Prmt1 (probe ID: Mm00480133_m1 or Agxt2 (probe ID: Mm01304088_m1). Data were normalised to expression of the housekeeping genes 18S (probe ID: Mm03928990_g1) and Gapdh (probe ID: Mm99999915_g1) and relative expression compared using the comparative Ct method.

Prmt1 = test: Gene expression in renal medulla (TaqMan), gene for synthesis of ADMA; details: wild-type mice, parecoxib 100 mg/kg in drinking water for 5 days, FIG. 2
Protocol: as §1, §2

Compound: CCC(=O)NS(=O)(=O)c1ccc(-c2c(-c3ccccc3)noc2C)cc1 [parecoxib]
- plasma levels of ADMA (ADMA): increased levels of ADMA
- expression of genes responsible for degradation of ADMA (Agxt2) (Agxt2): increased expression of genes responsible for degradation of ADMA (Agxt2)
- expression of genes responsible for synthesis of ADMA (Prmt1) (Prmt1): increased expression of genes responsible for synthesis of ADMA (Prmt1)
